In general, inhibition refers to the change of the read-out against control, counted positive when it falls. As a reminder, the IC50 is the concentration that inhibits the measured activity by half. Low values mean higher potency, high ones lower potency.

Marks after values point to notes of the source that are not given here.

This is an account of results in PMC6270194 (Molecules, 2013).

Assay [1] addresses T1, HIV-1 protease (Human immunodeficiency virus type 1 group M subtype B, UniProt P04585).
T1 construct: HIV-1 protease enzyme (Sigma Aldrich); purchased Sigma Aldrich
As to the kind of experiment: HIV-1 protease inhibition assay (fluorescent substrate). Conditions: 10 μM compounds dissolved in DMSO; for inhibition at 10 µM: read-out: % Enzyme Inhibition HIV-I protease. It counts as biochemical. As for the experimental part:
HIV-1 protease inhibition was performed by using a previously described method. HIV protease fluorescent substrate and HIV-1 protease enzyme (Sigma Aldrich) were used to determine HIV inhibition capacity of sample. Three primary controls i.e., blank, sample and positive control were used. Reaction mixture of 200 µL comprised of five enzyme units (5U) of HIV-1 protease along with 0.5 pmol of enzyme substrate. After addition of both enzymes and substrates, test compounds were added in different concentrations. Reaction mixture was incubated at 37 °C which leads to generation of fluorescence signal by cleaving Tyr-Pro peptide bond of the substrate. Finally reaction mixture was heated for 5 minutes at 90 °C to stop the reaction. The mixture was centrifuged at 12,000 rpm for 3 min. and supernatant was used to measure the fluorescence signal. The enzyme inhibition was calculated using the Equation (1).

A short description of assay [2]: DPPH· free radical scavenging assay. Conditions: for IC50: DPPH· scavenging, 0.2 mM DPPH· in DMSO, absorbance 515 nm; for antiradical capacity lower than other series 3 analogues (fold): relative to other curcumin analogues in series 3. The protocol:
DPPH^· assay is widely used to observe radical scavenging activity of various compounds and extracts. DPPH^· is stable N radical which is reduced to hydrazine during its reaction with hydrogen donors.
Initially, 0.2 mM DPPH^· solution was prepared using DMSO as the solvent. […] During reduction of DPPH^· solution by antiradical compound, absorption of DPPH^· was measured at 515 nm. The spectrophotometric data was acquired using BMG FLUOstar OPTIMA spectrophotometer (BMG Labtech, Durham, NC, USA) and the IC50 values were calculated.
(In general: DPPH is a stable violet radical that fades when it is reduced.)

Assay [3] in a line: Oxygen radical absorbance capacity (ORAC) assay. Conditions: for ORAC antioxidant capacity: 1 μM compounds dissolved in DMSO, Trolox equivalence, mean ± SD. As for the experimental part:
ORAC assay is based on the free radical damage to a fluorescence probe measured by fluorescence intensity over the time. The fluorescein sodium salt was used as fluorescence probe and change in its intensity was estimated as the index of the degree of free radical damage. Assay was performed using method described elsewhere. Briefly, the standards and samples were prepared using 75 mM phosphate buffer (pH 7). As the peroxy radicals are generated from decomposition of 2,2'-azobis(2-amidino-propane) dihydrochloride (AAPH), the signal was quenched from fluorescein. However, in the presence of antioxidant samples the fluorescence signal can be stabilize which depends directly upon the antioxidant’s capacity to neutralize the free radical. Quadratic relation emerging from florescent area under the decaying curve was used to calculate antioxidant capacity as mmol Trolox equivalence per L.

Assay [4] relates to Tyrosinase. Description: Tyrosinase inhibition assay (L-DOPA substrate). Format: biochemical. Conditions: 10 μM compounds dissolved in DMSO. As for the experimental part: Tyrosinase inhibition was calculated based on previously described methods using L-DOPA as the substrate. Tyrosinase inhibition depended upon the amount of dopachrome produced in the reaction mixture. Absorption was measured at 490 nm to calculate the amount of dopachrome produced. The assay was performed in 96-well clear polystyrene plates using FLUOstar OPTIMA plate reader. The tyrosinase inhibitory effect of sample was measured using the following the Equation (1).

Assay [5] can be described thus: Ferric reducing ability of plasma (FRAP) assay. To be noted: for FRAP antioxidant capacity: 10 μM compounds dissolved in DMSO, Trolox equivalence, mean ± SD. The text has this: The FRAP assay uses antioxidants in a redox-linked colorimetric assay to reduce ferric tripyridyl triazine to ferrous form at low pH [20].
FRAP assay is based on ferric to ferrous ion reduction to test the electron donating capacity of antioxidants. The assay was modified by using the 96-well microplate reader with an injection port system. Briefly, the FRAP working reagent was made using acetate buffer, 2,4,6-Tris (2-pyridyl)-s-triazine solution and ferric chloride in the ratio 10:1:1. […] After 6 min reaction time, absorbance was measured at 593 nm. Trolox standards at different concentrations were used to calculate the antioxidant capacity as mmol Trolox equivalence per L.

Assay [6] relates to angiotensin converting enzyme (ACE). Description: Angiotensin converting enzyme (ACE) inhibition assay. Format: biochemical. Conditions: 10 μM compounds dissolved in DMSO. As for the experimental part:
ACE assay is based on ACE inhibitory activity of test samples. The enzyme activity was measured by production of hippuric acid from the substrate hippuryl-L-histidyl-L-leucine (HHL). ACE cleaves the substrate to expose a free N-terminus, which was fluorogenically labeled with o-phthaldialdehyde (OPA). The florescence signal was measured by using excitation of 350 nm and emission of 500 nm. ACE inhibition activity of samples was measured using the following equation: % inhibition = 100 − (Acontrol − Asample)/Acontrol × 100 (1) where A is the absorbance Equation (1).

[7] abbreviates: DPPH assay, relative to curcumin.

Regarding `O=C1/C(=C(O)/C=C/c2ccccc2)CC/C1=C\c1ccccc1` [Compound 3a], the inhibition at 10 µM in assay [1] worked out at 27%. In assay [2] (setting [7]), the “radical scavenging capacity higher than curcumin (fold)” value is reported as “over 10 fold”. In addition, the IC50 in assay [2] worked out at 70 µM. Also, the ORAC antioxidant capacity in assay [3] is listed as 1.12 ± 0.1 ^c mmole TE/L. Moreover, in assay [4], the “% Enzyme Inhibition Tyrosinase” value was 70.85 ^c %. The FRAP antioxidant capacity in assay [5] is given as 1.41 ± 0.1 ^f mmole TE/L. Besides, in assay [6], the “% Enzyme Inhibition ACE” value is 51.96 ^ef %.
Consider `O=C1/C(=C(O)/C=C/c2ccccc2)CCC/C1=C\c1ccccc1` [Compound 2a], for which the inhibition at 10 µM in assay [1] came to 48.2%. This molecule had a half-maximal inhibitory concentration (IC50) in assay [2] of 2860 µM. The ORAC antioxidant capacity in assay [3] was 0.12 ± 0.01 ^g mmole TE/L. Further, in assay [4], the “% Enzyme Inhibition Tyrosinase” value is 46.1 ^i %. Also, in assay [5], the FRAP antioxidant capacity is 1.13 ± 0.4 ^g mmole TE/L. Besides, the “% Enzyme Inhibition ACE” value in assay [6] was 19.69 ^g %.
Consider “(E)-2-(3,4-dimethoxybenzylidene)-6-((E)-3-(3,4-dimethoxyphenyl)acryloyl)cyclohexanone [Compound 2e]”, for which the “% Enzyme Inhibition HIV-I protease” value in assay [1] is 61.6 ^a %. This molecule yielded an IC50 in assay [2] of 2570 µM. In addition, the ORAC antioxidant capacity in assay [3] is on record as 0.60 ± 0.1^e mmole TE/L. Besides, the FRAP antioxidant capacity in assay [5] is listed as 0.47 ± 0.1 ^k mmole TE/L. In addition, in assay [5] (10 µM concentration), the “FRAP value” stood at 0.47 mM TE/L. The “% Enzyme Inhibition ACE” value in assay [6] is listed as 36.56 ^f %.
As to `O=C1/C(=C(O)/C=C/c2ccc(Cl)cc2)CCC/C1=C\c1ccc(Cl)cc1` [Compound 2f], in assay [1], the inhibition at 10 µM came out at 9.9%. Besides, the IC50 in assay [2] was 710 µM. The ORAC antioxidant capacity in assay [3] is on record as 0.49 ± 0.1 ^ef mmole TE/L. Further, the “% Enzyme Inhibition Tyrosinase” value in assay [4] was 60.15 ^ef %. Also, in assay [5], the FRAP antioxidant capacity was 1.28 ± 0.04 ^fg mmole TE/L. The “% Enzyme Inhibition ACE” value in assay [6] is listed as “No ACE inhibition activity was detected”.
As to `Cc1ccc(/C=C/C(O)=C2\CC/C(=C\c3ccc(C)cc3)C2=O)cc1` [Compound 3g], the inhibition at 10 µM in assay [1] was 22.7%. Besides, the “antiradical capacity lower than other series 3 analogues (fold)” value in assay [2] (DPPH assay) is on record as “approximately 10 fold”. In addition, the 50% inhibitory concentration (IC50) in assay [2] turned out to be 510 µM. Also, the ORAC antioxidant capacity in assay [3] was 1.25 ± 0.04 ^bc mmole TE/L. The “% Enzyme Inhibition Tyrosinase” value in assay [4] was 67.18 ^d %. Moreover, the FRAP antioxidant capacity in assay [5] is on record as 0.95 ± 0.02 ^hi mmole TE/L. Also, the “% Enzyme Inhibition ACE” value in assay [6] is listed as 46.19 ^ef %.
Regarding `COc1ccc(/C=C/C(O)=C2\CCC/C(=C\c3ccc(OC)cc3)C2=O)cc1` [Compound 2c], in assay [1], the inhibition at 10 µM was 43.7%. Besides, the “DPPH· scavenging capacity weaker than curcumin (fold)” value in assay [2] (setting [7]) is listed as ~ 5 fold. This molecule displayed an IC50 in assay [2] of 4070 µM. Besides, the ORAC antioxidant capacity in assay [3] is 0.11 ± 0.01 ^g mmole TE/L. Besides, the “% Enzyme Inhibition Tyrosinase” value in assay [4] was 40.63 ^j %. In assay [5], the FRAP antioxidant capacity was 1.32 ± 0.001 ^f mmole TE/L. In assay [6], the “% Enzyme Inhibition ACE” value is 4.01 ^g %.
For “(E)-2-(4-hydroxybenzylidene)-6-((E)-3-(4-hydroxyphenyl)acryloyl)cyclohexanone [Compound 2b]”, the “% Enzyme Inhibition HIV-I protease” value in assay [1] is listed as 55.5 ^b %. Moreover, the half-maximal inhibitory concentration (IC50) in assay [2] was found to be 2580 µM. The ORAC antioxidant capacity in assay [3] was 0.43 ± 0.1 ^f mmole TE/L. Besides, the FRAP antioxidant capacity in assay [5] is 3.02 ± 0.02 ^d mmole TE/L. For the same molecule, the “% Enzyme Inhibition ACE” value in assay [6] is given as 88.73 ^ab %.
“(E)-2-(3,4-dimethoxybenzylidene)-5-((E)-3-(3,4-dimethoxyphenyl)acryloyl)cyclopentanone [Compound 3e]”: the “% Enzyme Inhibition HIV-I protease” value in assay [1] is given as 44.5 ^cd %. The “radical scavenging capacity higher than curcumin (fold)” value in assay [2] (setting [7]) is reported as “over 10 fold”. Also, in assay [2], the IC50 was 30 µM. Further, the ORAC antioxidant capacity in assay [3] is listed as 0.69 ± 0.1 ^e mmole TE/L. In addition, the FRAP antioxidant capacity in assay [5] was 0.67 ± 0.02 ^j mmole TE/L. In addition, in assay [6], the “% Enzyme Inhibition ACE” value is on record as 56.95 ^de %.
Consider `O=C1/C(=C(O)/C=C/c2ccc(O)cc2)CC/C1=C\c1ccc(O)cc1` [Compound 3b], for which the inhibition at 10 µM in assay [1] came out at 41.1%. In addition, the “radical scavenging capacity higher than curcumin (fold)” value in assay [2] (setting [7]) is on record as “over 10 fold”. Further, the half-inhibitory concentration (IC50) in assay [2] was determined as 60 µM. In assay [3], the ORAC antioxidant capacity was 0.49 ± 0.1 ^ef mmole TE/L. The FRAP antioxidant capacity in assay [5] was 2.29 ± 0.1 ^e mmole TE/L. The “% Enzyme Inhibition ACE” value in assay [6] is on record as 90.55 ^ab %.
In turn, “(1E,6E)-1,7-bis(4-hydroxy-3-methoxyphenyl)-1,6-heptadiene-3,5-dione [Curcumin, reference compound]” showed an IC50 in assay [2] of 860 µM. Moreover, in assay [3], the “ORAC value, peroxyl radical scavenging capacity” value came to 5.01 mM TE/L and the ORAC antioxidant capacity is listed as 1.89 ± 0.2 ^a mmole TE/L. In addition, the “% Enzyme Inhibition Tyrosinase” value in assay [4] is given as 12.61 ^k %. Further, the FRAP antioxidant capacity in assay [5] is 5.01 ± 0.1 ^c mmole TE/L. In assay [6], the “% Enzyme Inhibition ACE” value was 76.86 ^bc %.
For the molecule `O=C1/C(=C(O)/C=C/c2ccc([N+](=O)[O-])cc2)CC/C1=C\c1ccc([N+](=O)[O-])cc1` [Compound 3h], the inhibition at 10 µM in assay [1] was 44.8%. Besides, the “antiradical capacity lower than other series 3 analogues (fold)” value in assay [2] (DPPH assay) is reported as “approximately 10 fold”. Further, in assay [2], the concentration for half-maximal inhibition (IC50) was determined as 360 µM. Also, in assay [3], the ORAC antioxidant capacity is on record as 0.84 ± 0.1 ^d mmole TE/L. The “% Enzyme Inhibition Tyrosinase” value in assay [4] is on record as 59.22 ^fg %. Also, in assay [5], the FRAP antioxidant capacity is 1.05 ± 0.01 ^ghi mmole TE/L. Moreover, the “% Enzyme Inhibition ACE” value in assay [6] is recorded as 88.01 ^ab %.
As for “(E)-2-(4-hydroxy-3-methoxybenzylidene)-5-((E)-3-(4-hydroxy-3-methoxyphenyl)acryloyl)-cyclopentanone [Compound 3d]”, the “% Enzyme Inhibition HIV-I protease” value in assay [1] is listed as 41.8 ^de %. Also, in assay [2] (setting [7]), the “radical scavenging capacity higher than curcumin (fold)” value is given as “over 10 fold”. In assay [2], this molecule had a half-inhibitory concentration (IC50) of 70 µM. Besides, in assay [3], the ORAC antioxidant capacity is 0.75 ± 0.05 ^d mmole TE/L. The “% Enzyme Inhibition Tyrosinase” value in assay [4] is recorded as 79.99 ^b %. Besides, in assay [5], the FRAP antioxidant capacity is 6.70 ± 0.32 ^a mmole TE/L. Also, the “% Enzyme Inhibition ACE” value in assay [6] is listed as 93.89 ^a %.
`COc1cc(/C=C/C(O)=C2\CCC/C(=C\c3ccc(O)c(OC)c3)C2=O)ccc1O` [Compound 2d]: in assay [1], the inhibition at 10 µM was found to be 37.3%. The molecule also registered an IC50 in assay [2] of 720 µM. In addition, in assay [3], the ORAC antioxidant capacity is on record as 0.50 ± 0.02 ^ef mmole TE/L. Moreover, the “% Enzyme Inhibition Tyrosinase” value in assay [4] is 56.84 ^h %. Besides, the FRAP antioxidant capacity in assay [5] is 5.35 ± 0.1 ^b mmole TE/L. Moreover, in assay [6], the “% Enzyme Inhibition ACE” value is 84.59 ^ab %.
